Assay results as given in patent US20180002692A1, “Sequence Specific and Organism Specific Antimicrobials and Related Materials and Methods” (priority 2015, published 2018).
Entries after “also recorded” stand apart in the source; their conditions may differ.

What was measured:
[1] = tested on: ampicillin-resistant E. coli; type: cell-based; conditions: no α-TSS (no treatment)
Procedure: Three biological replicates were selected from colonies and pretreated for 16 hr with respective α-TSS concentration in liquid media. After pretreatment, the cultures were diluted 1:100,000 into liquid media with respective concentration of ampicillin and α-TSS and allowed to grow with shaking at 37° C. for 24 hr. The final OD at 562 nm at 24 hr was used for data analysis.
Data fitting analysis was performed in Origin Pro 6.1. Data was fit to a sigmoidal/decay Boltzman function.
The degree of re-sensitization exerted by α-TSS in presence of varying concentrations of ampicillin above and below the MIC determined for α-TSS was then evaluated.

MDR E. coli = assay: Growth of clinical strain MDR E. coli; type: cell-based; conditions: 10 μM
Procedure: (§1) MG1655 E. coli cultures were started from individual colonies from 2% LB and 1.5% agar into M9 media. They were diluted 1:10,000 from overnight culture into fresh M9 with respective treatment and grown at 37° C. with 225 rpm shaking. Clinical strains were started from individual colonies grown on cation adjusted Mueller Hinton Broth with 1.5% agar into liquid CAMHB. These were diluted 1:10,000 into CAMHB medium with respective treatment and grown at 37° C. with 225 rpm shaking. Optical density measurements were taking using a Tecan GENios at 562 nm with a bandwidth of 35 nm. Lag time was calculated using Growth Rates Made Easy (Hall et al. Mol. Biol. Evol. 31(1):232-238).
(§2) MDR E. coli was inhibited by four of the six oligomers tested (α-folC, α-ffh, α-lexA, and α-rpsD), extended-spectrum beta-lactamase (ESBL) K. pneumoniae was inhibited by two of the antisense oligomers (α-fnrS and α-rpsD), and New Delhi metallo-β-lactamase (NDM-1) K. pneumoniae was inhibited by one of the oligomers tested (α-rpsD) (FIGS. 15-16).

MG1655 E. coli [2] = assay: Colony forming unit analysis of MG1655; type: cell-based; conditions: 10 μM, six and eight hours
Excerpt: The effect of α-lexA, α-fnrS, and α-rpsD on cell viability using a colony forming unit analysis was then determine.

MG1655 E. coli [3] = assay: Growth (optical density, lag time) of MG1655; type: cell-based; conditions: 10 μM antisense inhibitor; for growth of MG1655 E. coli cultures: 24 h
Procedure: as §1, with “31(1):232-238). […]” for “31(1):232-238).”

CRE E. coli = assay: Growth of clinical strain CRE E. coli; type: cell-based, Escherichia coli; conditions: 10 μM
Procedure: as §1, §2

[4] = tested on: MDR Salmonella typhimurium; assay: Growth of clinical strain MDR S. typhimurium; type: cell-based; conditions: 10 μM
Procedure: as §1, §2

ESBL K. pneumoniae = assay: Growth of clinical strain ESBL K. pneumoniae; type: cell-based, Klebsiella pneumoniae; conditions: 10 μM
Procedure: as §1, §2

bla mRNA = bla mRNA expression by qPCR; type: cell-based, E. coli; conditions: 5 μM α-TSS, 25 μM α-RBS, 25 μM α-YUNR; absence of ampicillin
Procedure: Three biological replicates were used for bla expression analysis. Cultures were pretreated overnight in respective PNA and liquid media in the absence of ampicillin and collected for RNA at 16 hr.
50 μL of the respective culture was added to 100 μL of Bacteria RNAprotect (Qiagen) and incubated at room temperature for 5 min. The cells were then pelleted via centrifugation for 3 min at 10,000 rpm, the supernatant removed, and samples were flash frozen in an ethanol dry ice bath and stored at −80° C. Precautions were taken to protect RNA from RNases using RNaseZap (Life Technologies). RNA was extracted from frozen cell pellets using GeneJET RNA purification kit (Thermo Scientific) and 350-600 ng was treated with Turbo DNA-free (Ambion). 50 ng cDNA was synthesized using Maxima Universal First Stand cDNA synthesis kit (Thermo Scientific). 1.5 ng of cDNA was used for qPCR with Maxima SYBR Green qPCR master mix with ROX normalization (Thermo Scientific) using Illumina Eco qPCR system. Transcript levels were analyzed using the ΔCq method with respect to moderately expressed housekeeping gene cysG (43). Transcript levels were further analyzed for the mutant populations using the ΔΔCq method with respect to the no treatment populations.

[5] = tested on: ampicillin-resistant E. coli; type: cell-based; conditions: for growth of drug-resistant E. coli in presence of ampicillin: antisense oligomer plus 300 μg/mL ampicillin
Procedure: pAKgfp1 plasmid was obtained from Addgene for TEM-1 β-lactamase resistance gene, bla (43). The plasmid was cloned into chemically competent Zymo DH5a E. coli (Expressys). Untransformed Zymo DH5a was used as a control strain for β-lactamase activity assays. Liquid cultures were grown in 2% LB, incubated at 37° C. and shaken at 225 rpm. Solid cultures were grown on 2% LB broth, 1.5% agar at 37° C. Ampicillin sodium salt (Sigma Aldrich) was used for selection at a concentration of 300 μg/mL for MIC and CFU analysis. Optical density measurements were taken using a Tecan GENios at 562 nm with a bandwidth of 35 nm. All bacterial freezer stocks were stored in 40% glycerol at −80° C.

β-lactamase = conditions: 5 μM α-TSS, 25 μM α-RBS, 25 μM α-YUNR; absence of ampicillin
Procedure: Fluorocillin™ Green 495/525 β-lactamase substrate soluble product (Life Technologies) was used at a concentration of 2.2 μM as a β-lactamase substrate and measured using a Tecan GENios microplate reader in black flat bottom 96 well plate at 485/535 nm with a bandwidth of 35 nm. Three biological replicates were grown from colonies for 12 hours liquid media in the presence of the respective antisense agents, diluted 1:10 into liquid media and Fluorocillin green, and monitored in the Tecan GENios for 5 hr at 37° C. measuring every 2 min. The slope of fluorescence measured was used as a measure of β-lactamase activity.
Using quantitative real-time polymerase chain reaction (qPCR), expression levels of the bla gene in presence of the three antisense agents were measured. Studies were carried out with 5 μM α-TSS, 25 μM α-RBS, and 25 μM α-YUNR in the absence of ampicillin.

| Molecule | growth inhibition of MDR E. coli (MDR E. coli) | lag time (MG1655 E. coli [3]) | growth inhibition of CRE E. coli (CRE E. coli) | growth inhibition of MDR S. typhimurium [4] | other results |
| --- | --- | --- | --- | --- | --- |
| CC1(C)S[C@@H]2[C@H](NC(=O)[C@H](N)c3ccccc3)C(=O)N2[C@H]1C(=O)O [ampicillin, Ampicillin, reference compound] |  |  |  |  | slope of the transition from resistant to sensitive (Boltzman fit) [1]: −0.0051 ODmLμg^−1; ampicillin concentration up to which growth is without inhibition ([1]; 24 hr): 300 µg/mL; ampicillin concentration where no growth was observed ([1]; 24 hr): 700 µg/mL |
| KFFKFFKFFK -O-gctttcattccg (antisense GCTTTCATTCCG; all peptide nucleic acid (PNA); (KFF)3K cell-penetrating peptide joined to the N-terminus through an O-linker) [α-lexA, 12-mer antisense PNA centered on start codon of lexA, O-linker to (KFF)3K] | inhibited | significantly increased lag time | inhibited | inhibited | viable cells at six and eight hours (MG1655 E. coli [2]): prevented significant increase in viable cells; also recorded: prevents significant increases in viable MG1655 E. coli cells; growth of MG1655 E. coli cultures (MG1655 E. coli [3]): completely inhibited; also recorded: completely prevented cell growth; also recorded: Complete inhibition |
| KFFKFFKFFK -O-taatcatggtat (antisense TAATCATGGTAT; all peptide nucleic acid (PNA); (KFF)3K cell-penetrating peptide joined to the N-terminus through an O-linker) [α-folC, 12-mer antisense PNA centered on start codon of folC, O-linker to (KFF)3K] | inhibited |  | inhibited | inhibited |  |
| KFFKFFKFFK -O-tcaaacattgtc (antisense TCAAACATTGTC; all peptide nucleic acid (PNA); (KFF)3K cell-penetrating peptide joined to the N-terminus through an O-linker) [α-ffh, 12-mer antisense PNA centered on start codon of ffh, O-linker to (KFF)3K] | inhibited |  | inhibited | inhibited |  |
| KFFKFFKFFK-O-cacctgcaagag (antisense CACCTGCAAGAG; all peptide nucleic acid (PNA); (KFF)3K cell-penetrating peptide joined to the N-terminus through an O-linker) [α-fnrS] |  | significantly increased lag time | inhibited | inhibited | growth inhibition of ESBL K. pneumoniae (ESBL K. pneumoniae): inhibited; growth of MG1655 E. coli cultures (MG1655 E. coli [3]): completely inhibited; also recorded: completely prevented cell growth; also recorded: Complete inhibition |
| KFFKFFKFFK-O-cctttttcaata (antisense CCTTTTTCAATA; PNA, (KFF)3K peptide via O-linker, chemistry not fully specified) [α-RBS] |  |  |  |  | bla mRNA expression (bla mRNA): did not affect bla transcript levels; also recorded: did not significantly reduce bla expression; re-sensitization of drug resistant E. coli to ampicillin [5]: re-sensitized drug resistant E. coli to ampicillin; also recorded: re-sensitization of drug resistant E. coli to ampicillin; also recorded: re-sensitize; growth in absence of ampicillin (toxicity of antisense agent) ([5]; absence of ampicillin): non-toxic effect; also recorded: No inhibition; growth of drug-resistant E. coli in presence of ampicillin [5]: hindered cell growth; also recorded: impact growth; also recorded: significant antibiotic effect; minimum inhibitory concentration (MIC) ([5]; in presence of 300 μg/mL ampicillin, after overnight pretreatment with antisense agent): 25 µM |
| KFFKFFKFFK-O-gaataagggcga (antisense GAATAAGGGCGA; PNA, (KFF)3K peptide via O-linker, chemistry not fully specified) [α-YUNR] |  |  |  |  | growth of drug-resistant E. coli in presence of ampicillin [5]: no impact on cell growth; β-lactamase activity (β-lactamase): no impact on protein activity |
| KFFKFFKFFK-O-ttcgacatcaac (antisense TTCGACATCAAC; PNA, (KFF)3K peptide via O-linker, chemistry not fully specified) [α-gyrB, 12-mer antisense PNA centered on start codon of gyrB, O-linker to (KFF)3K] |  | significantly increased lag time | inhibited | inhibited |  |
